Results: PubChem BioAssay AID602210 (Sanford-Burnham Center for Chemical Genomics, 2012)
Active and inactive are the calls of the source. The rule behind the calls is not given here.

Test: H9c2 cardiomyoblast viability modulators under 2-DG – cell-based, ATPlite luminescence, rat, set 2, myocardial damage modulator project, dose response (AID 602210)
Conditions: H9c2 rat cardiomyoblasts, 2-deoxyglucose-induced death, 2 h

Compound | IC50
Cc1ccc(C)c(NC(=O)C(Sc2nc3ccccc3c(=O)n2CC(C)C)c2ccccc2)c1 (stereo not given) | 0.34 µM
COc1cc(CN2C[C@@H](CO)O[C@@H](n3cnc4c(Nc5ccccc5)ncnc43)C2)cc(OC)c1OC | 17.5 µM (inactive)
CC(=O)Nc1cccc(-c2cc(NC=O)c3ncc(-c4ccc(C(C)=O)cc4)n3c2)c1 | 13.6 µM (inactive)
COc1cc(-c2cnc3c(NC=O)cc(-c4ccsc4)cn23)cc(OC)c1OC | 6.13 µM
COc1cc(-c2cc3nc(NCCc4ccc(S(N)(=O)=O)cc4)ccn3n2)cc(OC)c1OC | 15.6 µM (inactive)
COc1ccc(CC(=O)N(Cc2ccccc2)c2ccccc2)cc1S(=O)(=O)N1CCOCC1 | 8.92 µM
CC(C)N1C(=O)S/C(=C/c2ccc3c(c2)n(C)c(=O)n3C)C1=O | 7.32 µM
O=C(NC1CCCCC1)C(c1ccc2ncccc2c1)N(Cc1ccccc1)C(=O)c1ccc2c(c1)OCCO2 (stereo not given) | 29.4 µM (inactive)
COC(=O)c1[nH]c2ccccc2c1NC(=O)CNC1CCCCC1 | 13.5 µM (inactive)
CC(C)(C)OC(=O)CNC(=O)c1[nH]cnc1C(=O)Nc1ccc(CNC(=O)OC(C)(C)C)cc1 | 5.09 µM
CCOC(=O)C(Cc1ccc(NC(=O)/C(=C/c2ccc(OC(C)=O)cc2)NC(C)=O)cc1)N1C(=O)c2ccccc2C1=O (stereo not given) | 15.6 µM (inactive)
O=C(NCC(=O)N(Cc1ccccc1)C(C(=O)NC1CCCCC1)c1ccco1)c1ccco1 (stereo not given) | 24 µM (inactive)
COC(=O)c1ccc(C(C(=O)NCc2ccccc2)N(Cc2cccs2)C(=O)c2cnccn2)cc1 (stereo not given) | 13.4 µM (inactive)
CCCC(=O)Nc1nc2ccc(NC(=O)c3ccc(Br)o3)cc2s1 | > 79 µM (inactive)
COc1ccc(CN(C)C(=O)C(Cc2ccccc2)NC(=O)c2ccccc2)cc1F (stereo not given) | 10.5 µM (inactive)
CCOC(=O)C1=C(CC)Nc2ccccc2N=C1NC(=O)c1ccc(S(=O)(=O)N(C)C)cc1 | > 79 µM (inactive)
COc1ccc(-n2c(/C=C/c3ccc(O)cc3)nc3ccccc3c2=O)cc1 | 18.5 µM (inactive)
Brc1cc2c(cc1/C=N/Nc1nc(N3CCCC3)nc(N3CCOCC3)n1)OCO2 | 16 µM (inactive)
CCOc1ccccc1NC(=O)c1oc2ccccc2c1NC(=O)C1CCCO1 (stereo not given) | 12.6 µM (inactive)
O=C(N/N=C/c1cn(-c2ccccc2)nc1-c1cccnc1)c1ccccc1 | > 79 µM (inactive)
Cc1cc(N)n(-c2nc(-c3cccnc3)nc3ccccc23)n1 | 26.1 µM (inactive)
NC(=O)c1cc2ccccc2o/c1=N\NC(=O)c1ccc(F)cc1 | 7.99 µM
O=C(c1ccccc1)c1ccc2nc(N3CCN(C(=O)c4ccco4)CC3)c3nncn3c2c1 | 21.9 µM (inactive)

Compound | IC50
O=C(CN1CCN(Cc2ccccc2)CC1)Nc1ccc([N+](=O)[O-])cc1C(=O)Nc1ccccc1F | 24.6 µM (inactive)
COc1cc(NC(=O)c2cc3ccccc3cc2OC)ccc1NC(=O)c1cccs1 | 3.78 µM
COc1ccc(-c2cc(NC=O)c3ncc(-c4ccc(C(C)=O)cc4)n3c2)cn1 | 10.1 µM (inactive)
COc1cc(C(=O)Nc2ccc(NC(=O)c3ccco3)nc2)cc(OC)c1OC | 38.5 µM (inactive)
COc1ccc(NC(=O)c2oc3ccc(S(=O)(=O)N4CCOCC4)cc3c2C)cc1 | 15.3 µM (inactive)
COc1cc(/C=N/NC(=O)c2cccnc2)ccc1OS(=O)(=O)c1ccc(F)cc1 | 21.2 µM (inactive)
COc1cc(C(=O)Nc2cccc(-c3nnc(-c4ccco4)o3)c2)ccc1OC(C)=O | 9.42 µM
CCOc1ccc(C(C(=O)NCC2CCCO2)N(C(=O)c2snc(C(N)=O)c2N)c2ccccc2F)cc1 (stereo not given) | 24 µM (inactive)
Cc1ccc(-c2nnc3ccc(SCC(=O)N4CCCc5ccccc54)nn23)cc1 | 14 µM (inactive)
CCOC(=O)C1=C(COC(=O)/C=C/c2ccc(F)cc2)NC(=O)NC1C (stereo not given) | 18.1 µM (inactive)
CCOc1cc(/C=C/c2ccc3cccc([N+](=O)[O-])c3n2)ccc1OCC(=O)N(C)C | 18.3 µM (inactive)
CS(=O)(=O)c1ccc(-c2cnc3c(NC=O)cc(-c4ccsc4)cn23)cc1 | 23 µM (inactive)
COc1cc(/C=N/NC(=O)c2cccnc2)ccc1OS(=O)(=O)c1cc(C)ccc1C | 18.5 µM (inactive)
Cc1ccc(C=NNc2nc3c([nH]2)c(=O)n(C)c(=O)n3C)cc1 | 11 µM (inactive)
Cc1c(OCC(=O)NCCN2CCOCC2)ccc2c1oc(=O)c1ccccc12 | 17.1 µM (inactive)
COc1ccc(COc2cc(-c3cccc(OC)c3)nc3ccc(NC(=O)c4ccc(OC)cc4)cc23)cc1 | 4.21 µM
Fc1ccc(CSc2ccc3nnc(-c4cccnc4)n3n2)cc1 | 44.5 µM (inactive)
COc1ccc(NC(=O)c2cc(-c3ccccn3)nc3ccccc23)cc1S(=O)(=O)N(C)C | 5.87 µM
COc1cccc(Nc2nc3ccccc3n3cnnc23)c1 | 17.5 µM (inactive)
COc1cc(NC(=O)c2csc(-c3ccncc3)n2)cc(C(=O)Nc2cccc(C(F)(F)F)c2)c1 | 7.25 µM
Cc1nn(-c2ccccc2)c(C)c1/C=N/NC(=O)c1cc(C(C)(C)C)[nH]n1 | 44.7 µM (inactive)
CCC1(CC)NC(=O)N(CC(=O)OCC(=O)Nc2ccccc2[N+](=O)[O-])C1=O | 21.4 µM (inactive)
COc1ccc(C(C(=O)NCc2ccccc2)N(Cc2cccs2)C(=O)c2cnccn2)cc1 (stereo not given) | 23 µM (inactive)

Compound | IC50
COc1cc(C(=O)NCC(=O)N/N=C/c2ccc(-c3cccc([N+](=O)[O-])c3)o2)cc(OC)c1OC | 17.5 µM (inactive)
CN(CC1COc2ccccc2O1)c1nc(-c2cccnc2)nc2ccccc12 (stereo not given) | 18.9 µM (inactive)
CCOc1cc(/C=C(\C#N)C(=O)Nc2ccc(S(N)(=O)=O)cc2)ccc1OCCN1CCOCC1 | 9.62 µM
CCc1nc2ccc(C(=O)Nc3cc(-c4ccccc4)ccc3OC)cn2c1N(C)Cc1nccs1 | 14.1 µM (inactive)
C[C@H](CO)N1C[C@H](C)[C@@H](CN(C)S(=O)(=O)c2cccs2)Oc2ccc(NC(=O)Nc3ccccc3)cc2C1=O | > 79 µM (inactive)
CC(=O)c1ccc(N2CCN(C(=O)C3CCCN(c4ncnc5c4nc4n5CCCCC4)C3)CC2)cc1 (stereo not given) | 25.6 µM (inactive)
O=C1c2ccccc2C(=O)N1CCCCSc1nc2ccccc2c(=O)n1CCCN1CCOCC1 | > 79 µM (inactive)
COc1cc(Nc2nc3ccccc3n3nnnc23)cc(OC)c1OC | 8.82 µM
COc1ccc(Nc2nc(C(=O)N3CCc4cc(OC)c(OC)cc4C3)cs2)cc1 | 14.2 µM (inactive)
CCOC(=O)c1ccc(NC(=O)c2nc[nH]c2C(=O)NCCCCCNC(=O)OC(C)(C)C)cc1 | 6.6 µM
Cc1cccc(NC(=O)c2nc[nH]c2C(=O)NCCCCCCNC(=O)c2[nH]cnc2C(=O)Nc2cccc(C)c2)c1 | > 79 µM (inactive)
COc1ccc(-c2cc(C(=O)N(C)Cc3ccc(OC)c(OC)c3OC)c3ccccc3n2)cc1OC | 10.2 µM (inactive)
Cc1ccccc1C1c2[nH]c3ccccc3c2C[C@H]2C(=O)N(c3ccccc3C(=O)NCCCN3CCOCC3)C(=O)N12 (stereo not given in full) | 46 µM (inactive)
O=C(N/N=C/c1ccccn1)c1ccc(NC(=O)c2cccc([N+](=O)[O-])c2)cc1 | > 79 µM (inactive)
COc1cc(/C=N/NC(=O)c2ccncc2)ccc1OC(=O)c1ccccc1Cl | 15.8 µM (inactive)
N#C/C(=C\c1ccc(-c2cccc([N+](=O)[O-])c2)o1)C(=O)NCCN1CCOCC1 | > 79 µM (inactive)
COc1ccc(-c2cc(NC=O)c3ncc(-c4cccc(C(C)=O)c4)n3c2)cc1 | > 79 µM (inactive)
Cn1nc(C(=O)Nc2nc(-c3ccccn3)cs2)c2ccccc2c1=O | > 79 µM (inactive)
COc1cccc(Nc2nc3ccccc3n3nnnc23)c1 | > 79 µM (inactive)
CCOc1cc(-c2cc(-c3ccc(N)cc3)nc(N)c2C#N)ccc1O | 11.8 µM (inactive)
COc1cccc(-c2nn(-c3ccccc3)cc2C(=O)Nc2nccs2)c1 | 16.3 µM (inactive)
Cc1nc(NC(=O)c2cc3c(C)nn(-c4ccccc4)c3s2)sc1C(=O)Nc1ccccc1 | > 79 µM (inactive)
O=C(Cn1nc(C(=O)O)c2ccccc2c1=O)c1c[nH]c2ccccc12 | 40.1 µM (inactive)

Compound | IC50
Cn1c(=O)n(CCc2ccccc2)c(=O)c2c1nc1n2CCN1Cc1ccco1 | 19.3 µM (inactive)
COc1cccc(-c2cnc3c(NC=O)cc(-c4cc(C)c(O)c(C)c4)cn23)c1 | 18.9 µM (inactive)
COc1ccc(CSc2nc3ccccc3c(=O)[nH]2)cc1F | > 79 µM (inactive)
COc1cc(-c2cc(NC(C)=O)c3ncc(-c4ccc(F)cc4)n3c2)cc(OC)c1OC | 8.78 µM
c1cncc(-c2nc(NCC3COc4ccccc4O3)c3ccccc3n2)c1 (stereo not given) | > 79 µM (inactive)
CCOC(=O)N1CCN(C(=O)CSc2nc3ccccc3c(=O)n2-c2ccccc2)CC1 | 34.5 µM (inactive)
CCn1nc(C(=O)Nc2nc(-c3ccccn3)cs2)c2ccccc2c1=O | 6.65 µM
COc1ccc(-c2cc(-c3nnc(COC(=O)C4CC4)o3)c3ccccc3n2)cc1OC | 8.35 µM
CC(=O)Nc1cccc(NC(=O)c2cc(-c3cccnc3)nc3ccc(Br)cc23)c1 | > 79 µM (inactive)
COc1ccccc1CN(C(=O)CNC(=O)c1ccco1)C(C(=O)NCC1CCCO1)c1ccccc1 (stereo not given) | 9.47 µM
CC(=O)c1ccc(-c2ccc(C(=O)Nc3nc(-c4ccccn4)cs3)o2)cc1 | 5.91 µM
CC(=O)Nc1ccc(S(=O)(=O)N(Cc2ccco2)Cc2cc3ccccc3[nH]c2=O)cc1 | 8.86 µM
C[C@H](CO)N1C[C@H](C)[C@@H](CN(C)S(=O)(=O)c2ccccc2)Oc2ccc(NC(=O)Nc3ccccc3)cc2C1=O | 36.2 µM (inactive)
COc1ccccc1OCC(=O)Nc1cccc(-c2nnc(-c3ccco3)o2)c1 | > 79 µM (inactive)
COc1cc(CCNc2ccc3nnc(-c4ccccc4)n3n2)cc(OC)c1OC | 30.6 µM (inactive)
COc1cccc(-c2cnc3c(NC=O)cc(-c4ccc(O)c(OC)c4)cn23)c1 | 8.51 µM
COc1ccc(C=CC(=O)c2ccc3cc(OC)c(OC)cc3c2)cc1OC | 11.7 µM (inactive)
COc1ccc(CCCNC(=O)C2(C)Cc3c(-c4ccc(NC(C)=O)cc4)ccnc3O2)cc1 (stereo not given) | 12.5 µM (inactive)
COc1cccc(C(=O)Nc2c(C(N)=O)oc3ccccc23)c1 | 15.1 µM (inactive)
O=C(CNC(=O)c1nc[nH]c1C(=O)NCC(=O)OCc1ccccc1)OCc1ccccc1 | 0.953 µM
COc1cc(C(=O)Nc2cc3c(cc2N2CCCCC2)n(C)c(=O)n3C)cc(OC)c1OC | 23.7 µM (inactive)
